Measured values reported in ChEMBL document CHEMBL5614442, “Discovery, synthesis and biological evaluation of novel isoquinoline derivatives as potent indoleamine 2, 3-dioxygenase 1 and tryptophan 2, 3-dioxygenase dual inhibitors” (Eur J Med Chem, 2024).
The source made the active and inactive calls. The calls are words filed in the database; no cut-off is given here.

Legend:
[1] = target: T1, Tryptophan 2,3-dioxygenase (Homo sapiens, UniProt P48775)
Target sequence in this assay (P48775 whole entry): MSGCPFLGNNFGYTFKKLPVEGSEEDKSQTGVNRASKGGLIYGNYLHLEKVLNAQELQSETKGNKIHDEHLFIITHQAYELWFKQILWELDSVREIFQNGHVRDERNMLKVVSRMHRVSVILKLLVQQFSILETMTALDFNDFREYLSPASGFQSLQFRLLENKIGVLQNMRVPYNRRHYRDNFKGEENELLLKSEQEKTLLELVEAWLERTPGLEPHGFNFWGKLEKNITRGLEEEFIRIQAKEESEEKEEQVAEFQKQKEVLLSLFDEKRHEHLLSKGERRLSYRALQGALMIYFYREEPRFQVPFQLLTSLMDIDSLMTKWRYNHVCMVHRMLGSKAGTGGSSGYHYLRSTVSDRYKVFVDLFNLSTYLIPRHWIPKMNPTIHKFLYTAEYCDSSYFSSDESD

[2] = target: T2, Indoleamine 2,3-dioxygenase 1 (Homo sapiens, UniProt P14902); assay: Inhibition of N-terminal His-tagged recombinant human IDO1 extracted from Escherichia coli Transetta (DE3) using L-tryptophan as substrate preincubated for 5 mins followed by substrate addition and measured after 1 hrs by absorbance based microplate reader
Target sequence in this assay (P14902 whole entry): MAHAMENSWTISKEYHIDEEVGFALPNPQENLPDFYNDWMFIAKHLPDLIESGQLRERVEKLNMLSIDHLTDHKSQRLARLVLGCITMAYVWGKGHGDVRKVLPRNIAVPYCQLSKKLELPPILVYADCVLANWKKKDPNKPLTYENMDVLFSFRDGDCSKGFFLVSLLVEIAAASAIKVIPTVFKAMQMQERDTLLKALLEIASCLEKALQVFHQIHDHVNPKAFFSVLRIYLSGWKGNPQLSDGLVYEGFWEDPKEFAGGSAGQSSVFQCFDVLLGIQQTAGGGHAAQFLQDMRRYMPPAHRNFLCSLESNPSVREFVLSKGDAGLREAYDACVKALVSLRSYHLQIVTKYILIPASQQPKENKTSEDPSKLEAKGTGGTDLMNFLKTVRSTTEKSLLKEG

[3] = target: T2, Indoleamine 2,3-dioxygenase 1; assay: Inhibition of IDO1 in IFN-gamma induced human HeLa cells using L-tryptophan as substrate incubated for 24 hrs by absorbance based microplate analysis; assay type: cell-based
Target sequence in this assay (P14902 whole entry): as above

[4] = target: T1, Tryptophan 2,3-dioxygenase; remark: listed apart in the source
Target sequence in this assay (P48775 whole entry): as the sequence (P48775 whole entry) above

[5] = target: T2, Indoleamine 2,3-dioxygenase 1; assay: Inhibition of IDO1 (unknown origin)
[6] = target: T1, Tryptophan 2,3-dioxygenase; assay: Inhibition of TDO (unknown origin)

Row | SMILES | IC50 [1] [µM] | IC50 [2] [µM] | further results
1 | COc1ccc2cc3[n+](cc2c1OC)CCc1cc2c(cc1-3)OCO2 [BERBERINE] |  |  | IC50 [5]: 0.26 µM; IC50 [6]: 0.03 µM
2 | COc1ccc2cc(-c3cccnc3)ncc2c1OC | > 100 | > 100 | 
3 | COc1ccc2cc3[n+](cc2c1O)CCc1cc2c(cc1-3)OCO2 |  |  | inhibition [5]: Active; inhibition [6]: Active
4 | COc1ccc2cc(-c3ccc(NC(=O)c4ccc(F)cc4)cc3)ncc2c1O | > 100 | > 100 | 
5 | COc1ccc2cc(-c3ccc(C(C)(C)C)cc3)ncc2c1OC | 23.1 | > 100 | 
6 | COc1ccc2cc(-c3cc4ccccc4o3)ncc2c1OC | > 100 | > 100 | 
7 | COc1ccc(-c2ccc3c(O)c(OC)ccc3n2)cc1 | > 100 | > 100 | 
8 | COc1ccc(-c2ncc3c(O)c(OC)ccc3n2)cc1 | > 100 | > 100 | 

More lines, main results first:

Row | IC50 [1] [µM] | IC50 [2] [µM] | SMILES | further results
9 | 2.64 | 17.8 | COc1ccc2cc(C34C[C@H]5C[C@@H](C3)C[C@@H](C4)C5)ncc2c1OC | 
10 | 1.2 | 2.81 | COc1ccc2cc(-c3ccc(NC(=O)C(C)(C)C)cc3)ncc2c1O | 
11 | 0.19 | 4.45 | COc1ccc2cc(-c3ccc(NC(=O)c4ccccc4)cc3)ncc2c1O | IC50 [3]: > 30 µM; IC50 [4]: 14.6 µM
12 | 7.28 | 15.3 | COc1ccc2cc(-c3ccc(C(F)(F)F)cc3)ncc2c1O | 
13 | 5.6 | > 100 | COc1ccc2nc(-c3ccccc3)ccc2c1O | 
14 | 0.34 | 7.81 | COc1ccc2cc(-c3ccccc3)ncc2c1OC | IC50 [3]: > 30 µM; IC50 [4]: > 30 µM
15 | 3.36 | 4.54 | COc1ccc2cc(-c3ccc(NS(=O)(=O)C4CC4)cc3)ncc2c1O | 
16 | 14.3 | 50.5 | COc1ccc2cc(-c3ccc(NC(=O)Nc4ccccc4)cc3)ncc2c1O | 
17 | 0.2 | 1.24 | COc1ccc2cc(-c3ccc(NS(C)(=O)=O)cc3)ncc2c1O | IC50 [3]: 23 µM; IC50 [4]: 14.8 µM
18 | 9.08 | 42.6 | COc1ccc2cc(-c3ccc(F)cc3)ncc2c1OC | 
19 | 0.28 | 5.1 | COc1ccc2cc(-c3ccc4c(c3)OCO4)ncc2c1O | IC50 [3]: > 30 µM; IC50 [4]: 25.8 µM
20 | 0.35 | 2.11 | COc1ccc2cc(-c3ccc(NC(C)=O)cc3)ncc2c1O | IC50 [3]: > 30 µM; IC50 [4]: > 30 µM
